Test results reported in ChEMBL document CHEMBL1132460, “Affinity and selectivity of matrix metalloproteinase inhibitors: a chemometrical study from the perspective of ligands and proteins” (J Med Chem, 1999).

Key:
Neutrophil collagenase = Neutrophil collagenase (Homo sapiens, UniProt P22894); assay: Inhibitory concentration against human matrix metalloprotease-8 (human neutrophil collagenase, MMP-8)
Stromelysin-1 = Stromelysin-1 (Homo sapiens, UniProt P08254); assay: Inhibitory concentration against human matrix metalloprotease-3 (MMP-3)
Sequence of Stromelysin-1 (P08254 whole entry): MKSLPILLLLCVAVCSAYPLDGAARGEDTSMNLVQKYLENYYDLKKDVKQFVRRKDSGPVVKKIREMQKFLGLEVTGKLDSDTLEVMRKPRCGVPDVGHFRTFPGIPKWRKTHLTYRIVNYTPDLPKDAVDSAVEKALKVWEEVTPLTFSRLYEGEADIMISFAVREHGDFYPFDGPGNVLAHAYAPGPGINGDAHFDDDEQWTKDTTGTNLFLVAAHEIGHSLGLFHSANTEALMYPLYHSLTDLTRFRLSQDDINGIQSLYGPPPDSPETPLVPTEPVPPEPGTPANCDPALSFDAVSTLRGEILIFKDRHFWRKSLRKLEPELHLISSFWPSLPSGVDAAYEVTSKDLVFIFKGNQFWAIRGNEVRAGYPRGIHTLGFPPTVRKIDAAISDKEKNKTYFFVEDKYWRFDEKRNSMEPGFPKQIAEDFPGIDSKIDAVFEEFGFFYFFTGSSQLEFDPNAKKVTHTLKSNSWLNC

[1] = Affinity ratio of IC50 of MMP-3 to IC50 of MMP-8

Sequence of Neutrophil collagenase (P22894 whole entry): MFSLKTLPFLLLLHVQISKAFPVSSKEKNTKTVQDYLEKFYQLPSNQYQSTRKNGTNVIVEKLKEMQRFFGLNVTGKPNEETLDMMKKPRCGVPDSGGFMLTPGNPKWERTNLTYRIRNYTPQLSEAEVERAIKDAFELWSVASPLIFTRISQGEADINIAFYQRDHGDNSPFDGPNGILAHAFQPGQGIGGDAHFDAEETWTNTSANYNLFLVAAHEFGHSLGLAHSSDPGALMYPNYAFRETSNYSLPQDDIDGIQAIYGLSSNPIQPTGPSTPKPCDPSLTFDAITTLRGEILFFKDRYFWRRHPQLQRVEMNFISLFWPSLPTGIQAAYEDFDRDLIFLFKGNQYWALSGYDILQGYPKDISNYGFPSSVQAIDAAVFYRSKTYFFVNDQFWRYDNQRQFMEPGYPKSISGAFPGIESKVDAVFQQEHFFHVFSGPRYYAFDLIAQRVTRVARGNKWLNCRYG

Row | Compound | IC50 (Neutrophil collagenase) [nM] | IC50 (Stromelysin-1; read-out: IC50) [nM] | log10(IC50 MMP-3/IC50 MMP-8) [1] | IC50 (Stromelysin-1) [nM l-1]
1 | O=C(O)C1Cc2ccccc2CN1S(=O)(=O)c1ccc(-n2nccn2)cc1 (stereo not drawn) | 90 | 600 | – | –
2 | O=C(c1ccccc1)c1ccc(S(=O)(=O)N2Cc3ccccc3CC2C(=O)O)cc1 (stereo not drawn) | 300 | 3000 | – | –
3 | CC(=O)Nc1ccc(S(=O)(=O)N2Cc3ccccc3CC2C(=O)NO)cc1 (stereo not drawn) | – | – | 0.85 | –
4 | COc1ccc(OC(=O)Nc2cccc(S(=O)(=O)N3Cc4ccccc4CC3C(=O)NO)c2)cc1 (stereo not drawn) | 200 | 3000 | 1.18 | –
5 | O=C(O)C1Cc2ccccc2CN1S(=O)(=O)c1ccc(-c2ccon2)s1 (stereo not drawn) | 600 | 2000 | – | –
6 | O=C(NO)C1Cc2ccccc2CN1S(=O)(=O)c1ccc(-c2ccc(Cl)cc2)cc1 (stereo not drawn) | 3 | 20 | 0.82 | –
7 | COc1ccc(S(=O)(=O)N2Cc3cc(NC(=O)CCC(=O)O)ccc3CC2C(=O)NO)cc1 (stereo not drawn) | 40 | 20 | -0.3 | –
8 | COc1ccc(S(=O)(=O)N2Cc3ncn(C)c3C[C@@H]2C(=O)NO)cc1 | – | 20 | 0.82 | –
9 | CNC(=O)c1ccc(Oc2ccc(S(=O)(=O)N3Cc4ccccc4CC3C(=O)O)cc2)cc1 (stereo not drawn) | 40 | 300 | – | –
10 | COc1ccc(S(=O)(=O)N2Cc3cc([N+](=O)[O-])ccc3CC2C(=O)NO)cc1 (stereo not drawn) | – | – | 1 | –
11 | O=C(NO)C1Cc2ccccc2CN1S(=O)(=O)c1ccc(-c2ccccc2)cc1 (stereo not drawn) | 2 | – | 1 | –
12 | CSc1nccc(-c2ccc(S(=O)(=O)N3Cc4ccccc4CC3C(=O)NO)s2)n1 (stereo not drawn) | 20 | 2000 | 2 | –
13 | COC(=O)c1csc(S(=O)(=O)N2Cc3ccccc3CC2C(=O)NO)c1OC (stereo not drawn) | 80 | 700 | 0.94 | –
14 | N#Cc1ccc(Oc2ccc(S(=O)(=O)N3Cc4ccccc4CC3C(=O)O)cc2)cc1 (stereo not drawn) | 10 | 1000 | – | –
15 | O=C(NO)C1Cc2ccccc2CN1S(=O)(=O)c1ccc(-c2ccon2)s1 (stereo not drawn) | 8 | 50 | 0.8 | –
16 | O=C(O)C1Cc2ccccc2CN1S(=O)(=O)c1ccc(-c2ccc(C(F)(F)F)cc2)cc1 (stereo not drawn) | 10 | 300 | – | –
17 | CN(C)c1ccc(-c2ccc(S(=O)(=O)N3Cc4ccccc4CC3C(=O)NO)cc2)cc1 (stereo not drawn) | 2 | 20 | 1 | –
18 | CC(C)(C)OC(=O)Nc1ccc2c(c1)CN(S(=O)(=O)c1ccc(-c3ccc(F)cc3)cc1)C(C(=O)NO)C2 (stereo not drawn) | 10 | 100 | 1 | –
19 | O=C(O)[C@H]1Cc2c([nH]c3ccccc23)CN1S(=O)(=O)c1ccc(Oc2ccccc2)cc1 | – | – | 1.3 | –
20 | CCOC(=O)Oc1ccc2c(c1)CN(S(=O)(=O)c1ccc(OC)cc1)C(C(=O)NO)C2 (stereo not drawn) | 2 | 20 | 1 | –

Row | Compound | IC50 (Neutrophil collagenase) [nM] | IC50 (Stromelysin-1; read-out: IC50) [nM] | log10(IC50 MMP-3/IC50 MMP-8) [1] | IC50 (Stromelysin-1) [nM l-1]
21 | O=C(NO)C1Cc2ccccc2CN1S(=O)(=O)c1ccc(N2CCOCC2)cc1 (stereo not drawn) | 100 | 300 | 0.48 | –
22 | O=C(NO)C1Cc2ccccc2CN1S(=O)(=O)c1ccc(Oc2ccccc2)cc1 (stereo not drawn) | 2 | 20 | 1 | –
23 | COc1ccc(S(=O)(=O)N2Cc3cc(N)ccc3CC2C(=O)NO)cc1 (stereo not drawn) | – | 10 | – | –
24 | O=C(NO)C1Cc2ccccc2CN1S(=O)(=O)c1cc(Br)c(Br)s1 (stereo not drawn) | 500 | – | 1.3 | 10000
25 | O=C(NO)C1Cc2ccccc2CN1S(=O)(=O)c1ccc2[nH]c(-c3ccccc3)nc2c1 (stereo not drawn) | 40 | 500 | 1.1 | –
26 | CSc1nccc(-c2ccc(S(=O)(=O)N3Cc4ccccc4CC3C(=O)O)s2)n1 (stereo not drawn) | 1000 | – | – | 10000
27 | COc1ccc(S(=O)(=O)N2Cc3[nH]cnc3C[C@@H]2C(=O)NO)cc1 | – | – | 0.7 | –
28 | COc1ccc(S(=O)(=O)N2Cc3cc(NC(=O)[C@H](C)NC(=O)OC(C)(C)C)ccc3CC2C(=O)NO)cc1 (stereo partly drawn) | 2 | 20 | 1 | –
29 | O=C(O)C1Cc2ccccc2CN1S(=O)(=O)c1ccc(-c2ccccn2)s1 (stereo not drawn) | 90 | 2000 | – | –
30 | COc1ccc(S(=O)(=O)N2Cc3cc(NC(=O)[C@H](C)N)ccc3CC2C(=O)NO)cc1 (stereo partly drawn) | – | 30 | – | –
31 | COc1ccc(S(=O)(=O)Oc2ccc3c(c2)CN(S(=O)(=O)c2ccc(OC)cc2)C(C(=O)NO)C3)cc1 (stereo not drawn) | 8 | 30 | 0.57 | –
32 | COc1ccc(S(=O)(=O)N2Cc3ccccc3C[C@@H]2C(=O)NO)cc1 | – | 20 | 0.7 | –
33 | O=C(O)C1Cc2ccc(O)cc2CN1S(=O)(=O)c1ccc(-c2ccc(Cl)cc2)cc1 (stereo not drawn) | 20 | 200 | – | –
34 | O=C(O)C1Cc2ccccc2CN1S(=O)(=O)CCc1ccc(-c2ccccc2)cc1 (stereo not drawn) | 20 | 50 | – | –
35 | O=C(Nc1ccc(S(=O)(=O)N2Cc3ccccc3CC2C(=O)NO)cc1)OCc1ccccc1 (stereo not drawn) | 800 | 400 | – | –
36 | O=C(NO)[C@H]1Cc2c([nH]c3ccccc23)CN1S(=O)(=O)c1ccc(N2CCOCC2)cc1 | – | – | 0.63 | –
37 | COc1ccc(S(=O)(=O)N2Cc3ncn(C)c3C[C@@H]2C(=O)O)cc1 | 1000 | – | 1 | 10000
38 | O=C(NO)C1Cc2ccccc2CN1S(=O)(=O)Cc1ccccc1 (stereo not drawn) | 3000 | – | – | 10000
39 | O=C(NO)C1Cc2ccccc2CN1S(=O)(=O)c1cc(S(=O)(=O)c2ccccc2)cs1 (stereo not drawn) | 2000 | – | 0.7 | 10000
40 | Nc1ccc2c(c1)CN(S(=O)(=O)c1ccc(-c3ccc(F)cc3)cc1)C(C(=O)NO)C2 (stereo not drawn) | 2 | 20 | 1 | –

Row | Compound | IC50 (Neutrophil collagenase) [nM] | IC50 (Stromelysin-1; read-out: IC50) [nM] | log10(IC50 MMP-3/IC50 MMP-8) [1] | IC50 (Stromelysin-1) [nM l-1]
41 | COc1ccc(S(=O)(=O)N2Cc3cc(NC(=O)[C@H](CC(=O)OC(C)(C)C)NC(=O)Cc4ccccc4)ccc3CC2C(=O)NO)cc1 (stereo partly drawn) | 10 | 40 | 0.6 | –
42 | O=C(O)C1Cc2ccccc2CN1S(=O)(=O)c1ccc(Oc2ccc(Cl)cc2)cc1 (stereo not drawn) | 20 | 500 | – | –
43 | O=C(Nc1cccc(S(=O)(=O)N2Cc3ccccc3CC2C(=O)NO)c1)c1ccccc1O (stereo not drawn) | 200 | – | – | 10000
44 | O=C(O)C1Cc2ccccc2CN1S(=O)(=O)c1ccc(Sc2ccccc2)cc1 (stereo not drawn) | 200 | 2000 | – | –
45 | COc1ccc(S(=O)(=O)N2Cc3cc(O)ccc3CC2C(=O)NO)cc1 (stereo not drawn) | 1 | 10 | 1 | –
46 | O=C(O)C1Cc2ccccc2CN1S(=O)(=O)c1ccc(-c2nc3ccccc3o2)cc1 (stereo not drawn) | 80 | 800 | – | –
47 | O=C(O)C1Cc2ccccc2CN1S(=O)(=O)c1ccc(Br)cc1 (stereo not drawn) | 600 | 5000 | – | –
48 | O=C(NO)C1Cc2ccccc2CN1S(=O)(=O)c1ccc(OCc2ccc(F)cc2)cc1 (stereo not drawn) | 2 | 20 | 1 | –
49 | CN(C)c1cccc2c(S(=O)(=O)N3Cc4ccccc4CC3C(=O)NO)cccc12 (stereo not drawn) | 200 | 400 | 0.3 | –
50 | CCCCCCCCCCCCCCCCS(=O)(=O)N1Cc2ccccc2CC1C(=O)NO (stereo not drawn) | 3000 | – | 0.52 | 10000
51 | O=C(O)C1Cc2ccccc2CN1S(=O)(=O)c1ccc(Oc2ccccc2)cc1 (stereo not drawn) | 9 | 200 | – | –
52 | O=C(NO)C1Cc2ccccc2CN1S(=O)(=O)Cc1ccc(-c2ccccn2)s1 (stereo not drawn) | 2 | 20 | 1 | –
53 | O=C(NO)C1Cc2ccccc2CN1S(=O)(=O)c1ccc2ccccc2c1 (stereo not drawn) | 70 | 400 | 0.76 | –
54 | O=C(NO)C1Cc2ccccc2CN1S(=O)(=O)c1ccc(C(F)(F)F)cc1 (stereo not drawn) | 50 | 500 | 1 | –
55 | COc1ccc(S(=O)(=O)N2Cc3[nH]c4ccccc4c3C[C@@H]2C(=O)NO)cc1 | – | – | 0.82 | –
56 | COc1ccc(S(=O)(=O)N2Cc3ccccc3C[C@H]2C(=O)NO)cc1 | – | 7000 | 0.85 | –
57 | CCOC(=O)Nc1ccc(S(=O)(=O)N2Cc3ccccc3CC2C(=O)NO)cc1 (stereo not drawn) | – | – | 1.22 | –
58 | O=C(O)C1Cc2ccccc2CN1S(=O)(=O)c1ccc(/C=C/c2ccccc2)cc1 (stereo not drawn) | 60 | 700 | – | –
